By melting point is commonly meant the temperature, or range, at which the solid turns liquid. Regarding `NC(=O)c1[nH]c2cnccc2c1-c1ccc(NC(=O)Nc2cccc(Cl)c2)cc1.O=C(O)C(F)(F)F`, the melting point amounted to 221 °C.

For the compound `NC(=O)c1[nH]c2cnccc2c1-c1ccc(NC(=O)Nc2ccc(F)c(Cl)c2)cc1.O=C(O)C(F)(F)F`, the melting point is 214 °C.

Consider `NC(=O)c1[nH]c2c(ccc[n+]2[O-])c1-c1ccc(NC(=O)Nc2cc(C(F)(F)F)ccc2F)cc1` [Example 8, 3-{4-[3-(2-Fluoro-5-trifluoromethylphenyl)ureido]phenyl}-7-oxy-1H-pyrrolo[2,3-b]pyridine-2-carboxamide], for which the melting point was 220 °C.

For `NC(=O)c1[nH]c2ncccc2c1-c1ccc(NC(=O)Nc2ccccc2F)cc1` [Example 9, 3-{4-[3-(2-Fluorophenyl)ureido]phenyl}-1H-pyrrolo[2,3-b]-pyridine-2-carboxamide], the melting point turned out to be 268.7 °C.

`COc1ccccc1NC(=O)Nc1ccc(-c2c(C(N)=O)[nH]c3ncccc23)cc1` [Example 10, 3-{4-[3-(2-Methoxyphenyl)ureido]phenyl}-1H-pyrrolo[2,3-b]-pyridine-2-carboxamide] registered a melting point of 227.1 °C.

Compound `NC(=O)c1[nH]c2ncccc2c1-c1ccc(NC(=O)Nc2ccc(C(F)(F)F)cc2)cc1` [Example 11, 3-{4-[3-(4-Trifluoromethylphenyl)ureido]phenyl}-1H-pyrrolo-[2,3-b]pyridine-2-carboxamide] returned a melting point of 296.2 °C.

The compound `NC(=O)c1[nH]c2ncccc2c1-c1ccc(NC(=O)Nc2cc(C(F)(F)F)ccc2Cl)cc1` [Example 12, 3-{4-[3-(2-Chloro-5-trifluoromethylphenyl)ureido]phenyl}-1H-pyrrolo[2,3-b]pyridine-2-carboxamide] had a melting point of 188.3 °C.

`NC(=O)c1[nH]c2ncccc2c1-c1ccc(NC(=O)Nc2cccc(C(F)(F)F)c2F)cc1` [Example 13, 3-{4-[3-(2-Fluoro-3-trifluoromethylphenyl)ureido]phenyl}-1H-pyrrolo[2,3-b]pyridine-2-carboxamide] registered a melting point of 265.4 °C.

The compound `NC(=O)c1[nH]c2ncccc2c1-c1ccc(NC(=O)Nc2ccc(F)c(C(F)(F)F)c2)cc1` [Example 14, 3-{4-[3-(4-Fluoro-3-trifluoromethylphenyl)ureido]phenyl}-1H-pyrrolo[2,3-b]pyridine-2-carboxamide] gave a melting point of 234.7 °C.

`NC(=O)c1[nH]c2ncccc2c1-c1ccc(NC(=O)Nc2cc(F)cc(C(F)(F)F)c2)cc1` [Example 15, 3-{4-[3-(3-Fluoro-5-trifluoromethylphenyl)ureido]phenyl}-1H-pyrrolo[2,3-b]pyridine-2-carboxamide]: the melting point was 257.5 °C.

In the case of `NC(=O)c1[nH]c2ncccc2c1-c1ccc(NC(=O)Nc2ccc(OC(F)(F)F)cc2)cc1` [Example 16, 3-{4-[3-(4-Trifluoromethoxyphenyl)ureido]phenyl}-1H-pyrrolo[2,3-b]pyridine-2-carboxamide], the melting point was found to be 258.9 °C.

`COc1ccc(NC(=O)Nc2ccc(-c3c(C(N)=O)[nH]c4ncccc34)cc2)cc1OC` [Example 17, 3-{4-[3-(3,4-Dimethoxyphenyl)ureido]phenyl}-1H-pyrrolo-[2,3-b]pyridine-2-carboxamide] gave a melting point of 223.7 °C.

Take `Cc1ccc(C)c(NC(=O)Nc2ccc(-c3c(C(N)=O)[nH]c4ncccc34)cc2)c1` [Example 18, 3-{4-[3-(2,5-Dimethylphenyl)ureido]phenyl}-1H-pyrrolo[2,3-b]pyridine-2-carboxamide]: the melting point stood at 308.8 °C.

Take `COc1cccc(NC(=O)Nc2ccc(-c3c(C(N)=O)[nH]c4ncccc34)cc2)c1` [Example 19, 3-{4-[3-(3-Methoxyphenyl)ureido]phenyl}-1H-pyrrolo[2,3-b]-pyridine-2-carboxamide]: the melting point was 306.2 °C.

On to `NC(=O)c1[nH]c2ncccc2c1-c1ccc(NC(=O)Nc2cccc(C(F)(F)F)c2)cc1` [Example 20, 3-{4-[3-(3-Trifluoromethylphenyl)ureido]phenyl}-1H-pyrrolo-[2,3-b]pyridine-2-carboxamide], for which the melting point was found to be 263.6 °C.

In turn, `Cc1ccc(NC(=O)Nc2ccc(-c3c(C(N)=O)[nH]c4ncccc34)cc2)cc1C` [Example 21, 3-{4-[3-(3,4-Dimethylphenyl)ureido]phenyl}-1H-pyrrolo[2,3-b]pyridine-2-carboxamide] yielded a melting point of 274.7 °C.

Compound `COc1ccc(C)cc1NC(=O)Nc1ccc(-c2c(C(N)=O)[nH]c3ncccc23)cc1` [Example 22, 3-{4-[3-(2-Methoxy-5-methylphenyl)ureido]phenyl}-1H-pyrrolo[2,3-b]pyridine-2-carboxamide] had a melting point of 327.7 °C.

For the compound `Cc1cccc(NC(=O)Nc2ccc(-c3c(C(N)=O)[nH]c4ncccc34)cc2)c1` [Example 23, 3-[4-(3-m-Tolylureido)phenyl]-1H-pyrrolo[2,3-b]pyridine-2-carboxamide], the melting point stood at 266 °C.

Consider `NC(=O)c1[nH]c2ncccc2c1-c1ccc(NC(=O)Nc2ccc(F)cc2)cc1` [Example 24, 3-{4-[3-(4-Fluorophenyl)ureido]phenyl}-1H-pyrrolo[2,3-b]-pyridine-2-carboxamide], for which the melting point was 299.9 °C.

`Cc1ccc(NC(=O)Nc2ccc(-c3c(C(N)=O)[nH]c4ncccc34)cc2)cc1` [Example 25, 3-[4-(3-p-Tolylureido)phenyl]-1H-pyrrolo[2,3-b]pyridine-2-carboxamide] gave a melting point of 293 °C.

With `Cc1ccc(NC(=O)Nc2ccc(-c3c(C(N)=O)[nH]c4ncccc34)cc2)cc1C(F)(F)F` [Example 26, 3-{4-[3-(4-Methyl-3-trifluoromethylphenyl)ureido]phenyl}-1H-pyrrolo[2,3-b]pyridine-2-carboxamide], the melting point was determined as 285 °C.

On to `NC(=O)c1[nH]c2ncccc2c1-c1ccc(NC(=O)Nc2ccc(OC(F)F)cc2)cc1` [Example 27, 3-{4-[3-(4-Difluoromethoxyphenyl)ureido]phenyl}-1H-pyrrolo[2,3-b]pyridine-2-carboxamide], for which the melting point is 283.5 °C.

Take `COc1cc(NC(=O)Nc2ccc(-c3c(C(N)=O)[nH]c4ncccc34)cc2)cc(OC)c1` [Example 28, 3-{4-[3-(3,5-Dimethoxyphenyl)ureido]phenyl}-1H-pyrrolo-[2,3-b]pyridine-2-carboxamide]: the melting point came to 266.5 °C.

`NC(=O)c1[nH]c2ncccc2c1-c1ccc(NC(=O)Nc2ccc(Cl)c(C(F)(F)F)c2)cc1` [Example 29, 3-{4-[3-(4-Chloro-3-trifluoromethylphenyl)ureido]phenyl}-1H-pyrrolo[2,3-b]pyridine-2-carboxamide] gave a melting point of 311.1 °C.

The compound `COc1ccc(C(F)(F)F)cc1NC(=O)Nc1ccc(-c2c(C(N)=O)[nH]c3ncccc23)cc1` [Example 32, 3-{4-[3-(2-Methoxy-5-trifluoromethylphenyl)ureido]phenyl}-1H-pyrrolo[2,3-b]pyridine-2-carboxamide] showed a melting point of 221 °C.

`COc1ccccc1NC(=O)Nc1ccc(-c2c(C(N)=O)[nH]c3cnccc23)cc1` [Example 34, 3-{4-[3-(2-Methoxyphenyl)ureido]phenyl}-1H-pyrrolo[2,3-c]pyridine-2-carboxamide] had a melting point of 216 °C.

As to `NC(=O)c1[nH]c2cnccc2c1-c1ccc(NC(=O)Nc2ccccc2C(F)(F)F)cc1` [Example 35, 3-{4-[3-(2-Trifluoromethylphenyl)ureido]phenyl}-1H-pyrrolo[2,3-c]pyridine-2-carboxamide], the melting point worked out at 228 °C.

`NC(=O)c1[nH]c2cnccc2c1-c1ccc(NC(=O)Nc2cccc(C(F)(F)F)c2)cc1` [Example 36, 3-{4-[3-(3-Trifluoromethylphenyl)ureido]phenyl}-1H-pyrrolo-[2,3-c]pyridine-2-carboxamide] yielded a melting point of 256 °C.

In the case of `NC(=O)c1[nH]c2cnccc2c1-c1ccc(NC(=O)Nc2ccc(F)cc2)cc1` [Example 37, 3-{4-[3-(4-Fluorophenyl)ureido]phenyl}-1H-pyrrolo[2,3-c]-pyridine-2-carboxamide], the melting point was 271 °C.

The compound `NC(=O)c1[nH]c2cnccc2c1-c1ccc(NC(=O)Nc2ccc(C(F)(F)F)cc2)cc1` [Example 38, 3-{4-[3-(4-Trifluoromethylphenyl)ureido]phenyl}-1H-pyrrolo-[2,3-c]pyridine-2-carboxamide] showed a melting point of 289 °C.

For the compound `Cc1ccc(NC(=O)Nc2ccc(-c3c(C(N)=O)[nH]c4cnccc34)cc2)cc1` [Example 39, 3-[4-(3-p-Tolylureido)phenyl]-1H-pyrrolo[2,3-c]pyridine-2-carboxamide], the melting point was determined as 277 °C.

`NC(=O)c1[nH]c2cnccc2c1-c1ccc(NC(=O)Nc2ccc(Cl)c(C(F)(F)F)c2)cc1` [Example 40, 3-{4-[3-(4-Chloro-3-trifluoromethylphenyl)ureido]phenyl}-1H-pyrrolo[2,3-c]pyridine-2-carboxamide] returned a melting point of 228 °C.

Compound `NC(=O)c1[nH]c2cnccc2c1-c1ccc(NC(=O)Nc2cc(C(F)(F)F)ccc2Cl)cc1` [Example 41, 3-{4-[3-(2-Chloro-5-trifluoromethylphenyl)ureido]phenyl}-1H-pyrrolo[2,3-c]pyridine-2-carboxamide] registered a melting point of 243 °C.

For the compound `NC(=O)c1[nH]c2cnccc2c1-c1ccc(NC(=O)Nc2ccc(OC(F)(F)F)cc2)cc1` [Example 42, 3-{4-[3-(4-Trifluoromethoxyphenyl)ureido]phenyl}-1H-pyrrolo[2,3-c]pyridine-2-carboxamide], the melting point amounted to 276 °C.

On to `NC(=O)c1[nH]c2cnccc2c1-c1ccc(NC(=O)Nc2ccc(OC(F)F)cc2)cc1` [Example 43, 3-{4-[3-(4-Difluoromethoxyphenyl)ureido]phenyl}-1H-pyrrolo[2,3-c]pyridine-2-carboxamide], for which the melting point worked out at 257 °C.

`Cc1ccc(NC(=O)Nc2ccc(-c3c(C(N)=O)[nH]c4cnccc34)cc2)cc1C` [Example 44, 3-{4-[3-(3,4-Dimethylphenyl)ureido]phenyl}-1H-pyrrolo[2,3-c]pyridine-2-carboxamide] yielded a melting point of 230 °C.

With `COc1cc(NC(=O)Nc2ccc(-c3c(C(N)=O)[nH]c4cnccc34)cc2)cc(OC)c1` [Example 45, 3-{4-[3-(3,5-Dimethoxyphenyl)ureido]phenyl}-1H-pyrrolo-[2,3-c]pyridine-2-carboxamide], the melting point was determined as 225 °C.

Values taken from patent publication US7947706B2, “Substituted pyrrolopyridines, compositions containing them, manufacturing process therefor and use thereof” (Sanofi-Aventis Deutschland GmbH, priority 2005, dated 2011).
